Results published in the CheMixHub viscosity set.
Several values for one entry are separate records, joined by “and”; a condition that tells them apart may be missing. Equal entries are not always repeated.

Experiments:
[1] = xn = mol fraction of the nth substance listed

CCCN(CCC)C(C)=O
Conditions | viscosity [mPa·s]
298.16 K, 101 kPa | 2.204

CCCCOC(C)=O
viscosity
Conditions | 293.15 K | 298.15 K | 308.15 K | 313.15 K | 318.15 K | 323.15 K
100 kPa | 0.73 mPa·s | 0.683 mPa·s | – | 0.55 mPa·s | 0.51 mPa·s | 0.465 mPa·s
101 kPa | 0.724 mPa·s and 0.724 mPa·s | – | – | – | 0.524 mPa·s and 0.5262 mPa·s | 0.507 mPa·s
101.33 kPa | 0.735 mPa·s | – | 0.592 mPa·s and 0.593 mPa·s and 0.584 mPa·s | 0.557 mPa·s and 0.565 mPa·s | 0.524 mPa·s | –

Oc1ccccc1Cl
Conditions | viscosity
293.15 K, 101 kPa | 4.21 mPa·s
298 K, 101 kPa | 3.376 mPa·s
298 K, 101.3 kPa | 3.376 mPa·s
298 K, 101.33 kPa | 3.36 mPa·s
298.15 K, 101 kPa | 3.671 mPa·s and 3.381 mPa·s
303 K, 101 kPa | 2.927 mPa·s
303 K, 101.3 kPa | 2.927 mPa·s
303.15 K, 101 kPa | 3.08 mPa·s and 2.821 mPa·s and 2.998 mPa·s
308 K, 101 kPa | 2.532 mPa·s
308 K, 101.3 kPa | 2.532 mPa·s
308.15 K, 101 kPa | 2.491 mPa·s and 2.358 mPa·s
313 K, 101 kPa | 2.191 mPa·s
313 K, 101.3 kPa | 2.191 mPa·s
313.15 K, 101 kPa | 2.32 mPa·s and 2.32 mPa·s and 2.259 mPa·s
318 K, 101 kPa | 1.947 mPa·s
318 K, 101.3 kPa | 1.947 mPa·s
318.15 K, 101 kPa | 2.038 mPa·s
323.1 K, 101 kPa | 2.015 mPa·s
323.15 K, 101 kPa | 1.871 mPa·s

CC(C)c1ccccc1
viscosity
Conditions | 293.15 K | 298.15 K | 303.15 K | 308.15 K | 313.15 K | 318.15 K | 323.15 K
100 kPa | – | 0.772 mPa·s | – | 0.692 mPa·s | – | 0.623 mPa·s | –
101 kPa | 0.779 mPa·s | 0.7314 mPa·s and 0.731 mPa·s | 0.68 mPa·s and 0.6881 mPa·s | 0.6366 mPa·s and 0.636 mPa·s and 0.6488 mPa·s | 0.608 mPa·s and 0.607 mPa·s and 0.6116 mPa·s | 0.5767 mPa·s | 0.5447 mPa·s

CC(C)C(C)O (stereo unspecified)
101.33 kPa
Conditions | viscosity [mPa·s]
303.15 K | 3.163
313.15 K | 2.185
323.15 K | 1.573

CCC(CC)CO
Conditions | viscosity
298.15 K, 101.33 kPa | 5.819 mPa·s and 5.819 mPa·s

OCCc1ccccc1
viscosity
Conditions | 298.15 K | 303.15 K | 308.15 K | 313.15 K
100 kPa | – | 9.05 mPa·s and 9.027 mPa·s | 7.653 mPa·s | 6.335 mPa·s
101 kPa | 10.9 mPa·s | – | – | –

CCCN
Conditions | viscosity
293.15 K, 101.3 kPa | 0.359 mPa·s
298.15 K, 100 kPa | 0.365 mPa·s
298.15 K, 101.3 kPa | 0.342 mPa·s
298.15 K, 101.33 kPa | 0.356 mPa·s
303.15 K, 101 kPa | 0.3468 mPa·s and 0.3479 mPa·s
303.15 K, 101.33 kPa | 0.3479 mPa·s and 0.3512 mPa·s
308.15 K, 101 kPa | 0.2998 mPa·s
308.15 K, 101.33 kPa | 0.328 mPa·s
313.15 K, 101.33 kPa | 0.3123 mPa·s
318.15 K, 101.33 kPa | 0.291 mPa·s

C=COC(C)=O
Conditions | viscosity [mPa·s]
303.15 K, 101.33 kPa | 0.372

CCCOC(=O)c1ccccc1
viscosity [mPa·s]
Conditions | 293.15 K | 298.15 K | 303.15 K | 308.15 K | 313.15 K | 318.15 K | 323.15 K
101 kPa | – | 2.357 | – | 1.905 | – | 1.574 | –
101.33 kPa | 2.586 | – | 2.013 | – | 1.604 | – | 1.301

CCCCCCCC(=O)O
Conditions | viscosity [mPa·s]
298.15 K, 101 kPa | 5.16

C1COCOC1
101 kPa
Conditions | viscosity [mPa·s]
298.15 K | 1.057
313.15 K | 0.8452

Clc1ccccc1Cl
viscosity
Conditions | 298.15 K | 303.15 K | 308.15 K | 313.15 K | 318.15 K
100 kPa | – | 1.238 mPa·s | 1.146 mPa·s | 1.054 mPa·s | 0.974 mPa·s
101 kPa | 1.22 mPa·s | 1.129 mPa·s and 1.22 mPa·s | 1.058 mPa·s and 1.148 mPa·s | 0.9857 mPa·s and 1.054 mPa·s | 0.974 mPa·s

NC(=O)C[C@H](N)C(=O)O + O
viscosity, [1], 101 kPa
Conditions | x1 = 0.00045 | x1 = 0.0009 | x1 = 0.001 | x1 = 0.00135 | x1 = 0.001798 | x1 = 0.002247 | x1 = 0.002695 | x1 = 0.003
293.15 K | 1.01 mPa·s | 1.018 mPa·s | 1.015 mPa·s | 1.025 mPa·s | 1.033 mPa·s | 1.041 mPa·s | 1.049 mPa·s | 1.033 mPa·s
298.15 K | 0.8972 mPa·s | 0.9037 mPa·s | 0.9105 mPa·s | 0.9104 mPa·s | 0.917 mPa·s | 0.9236 mPa·s | 0.9301 mPa·s | 0.9306 mPa·s
303.15 K | 0.8033 mPa·s | 0.8089 mPa·s | 0.8147 mPa·s | 0.8146 mPa·s | 0.8202 mPa·s | 0.8258 mPa·s | 0.8314 mPa·s | 0.8318 mPa·s and 0.8318 mPa·s
308.15 K | 0.7243 mPa·s | 0.7292 mPa·s | 0.734 mPa·s and 0.734 mPa·s | 0.734 mPa·s | 0.7388 mPa·s | 0.7436 mPa·s | 0.7484 mPa·s | 0.7488 mPa·s
313.15 K | 0.6573 mPa·s | 0.6615 mPa·s | 0.6657 mPa·s | 0.6657 mPa·s | 0.6699 mPa·s | 0.674 mPa·s | 0.6782 mPa·s | 0.6785 mPa·s
318.15 K | 0.6013 mPa·s | 0.605 mPa·s | 0.6087 mPa·s | 0.6087 mPa·s | 0.6123 mPa·s | 0.6159 mPa·s | 0.6195 mPa·s | 0.6198 mPa·s

CCCCOC(C)=O + CCCCCCC
[1], 298.15 K, 101.3 kPa
Conditions | viscosity [mPa·s]
x1 = 0.0364 | 0.4006
x1 = 0.1529 | 0.4135
x1 = 0.2504 | 0.4295
x1 = 0.3266 | 0.4449
x1 = 0.4281 | 0.4667
x1 = 0.5399 | 0.4974
x1 = 0.6531 | 0.5328
x1 = 0.7531 | 0.5696
x1 = 0.8609 | 0.6155
x1 = 0.9693 | 0.6674

Oc1ccccc1Cl + CCCCN(CCCC)CCCC
[1], 298.16 K, 101 kPa
Conditions | viscosity [mPa·s]
x1 = 0.5022 | 21.91
x1 = 0.5499 | 34.61
x1 = 0.6012 | 82.36
x1 = 0.6516 | 192.6
x1 = 0.7025 | 410.1
x1 = 0.7266 | 475.5
x1 = 0.7554 | 427.4
x1 = 0.7826 | 289.1
x1 = 0.8001 | 191.3
x1 = 0.812 | 134.4
x1 = 0.8523 | 63.53
x1 = 0.8708 | 39.93
x1 = 0.8974 | 19.56
x1 = 0.9113 | 9.963
x1 = 0.9432 | 4.507
x1 = 0.9687 | 2.537
x2 = 0.004631 | 2.323

CCCCOC(C)=O + CCCCCCCC
[1], 298.15 K, 101.3 kPa
Conditions | viscosity [mPa·s]
x1 = 0.0442 | 0.5144
x1 = 0.1275 | 0.5154
x1 = 0.2822 | 0.5241
x1 = 0.3556 | 0.5333
x1 = 0.4596 | 0.5465
x1 = 0.5629 | 0.5633
x1 = 0.6356 | 0.5776
x1 = 0.7305 | 0.5991
x1 = 0.8441 | 0.6298
x1 = 0.9724 | 0.6725

CCCCOC(C)=O + CC#N
[1], 303.15 K, 101.33 kPa
Conditions | viscosity [mPa·s]
x2 = 0.0981 | 0.6208
x2 = 0.2003 | 0.5981
x2 = 0.3003 | 0.5737
x2 = 0.403 | 0.5485
x2 = 0.5026 | 0.5195
x2 = 0.5972 | 0.4884
x2 = 0.6977 | 0.4463
x2 = 0.7987 | 0.4071
x2 = 0.8985 | 0.3669

[Cl-].[Cl-].[Mn+2] + O
Conditions | viscosity [mPa·s]
[1], 298.15 K, 101.33 kPa, x1 = 0.09931 | 8.35

CCOC(=O)c1ccc(O)cc1 + CCCCCOC(C)=O
Conditions | viscosity [mPa·s]
[1], 298.15 K, 101 kPa, x1 = 0.5 | 1.66

Oc1ccccc1Cl + C1COCCO1
[1], 101 kPa
Conditions | viscosity [mPa·s]
298.15 K, x1 = 0.2 | 1.965
298.15 K, x1 = 0.4 | 3.235
298.15 K, x1 = 0.6 | 5.018
298.15 K, x1 = 0.8 | 5.556
308.15 K, x2 = 0.1 | 2.996
308.15 K, x2 = 0.2 | 3.489
308.15 K, x2 = 0.4 | 3.32
308.15 K, x2 = 0.5 | 2.866
308.15 K, x2 = 0.6 | 2.311
308.15 K, x2 = 0.7 | 1.849
308.15 K, x2 = 0.8 | 1.478
308.15 K, x2 = 0.9 | 1.182

CCCN + CCCCN(CCCC)CCCC
[1], 303.15 K, 101 kPa
Conditions | viscosity [mPa·s]
x2 = 0.2025 | 0.5088
x2 = 0.4055 | 0.6949
x2 = 0.4953 | 0.7795
x2 = 0.603 | 0.8793
x2 = 0.7931 | 1.04

CC(C)c1ccccc1 + COC(=O)c1ccccc1
viscosity [mPa·s], [1], 101 kPa
Conditions | x2 = 0.1127 | x2 = 0.2209 | x2 = 0.3251 | x2 = 0.429 | x2 = 0.5302 | x2 = 0.6213 | x2 = 0.7199 | x2 = 0.8144 | x2 = 0.9082
303.15 K | 0.729 | 0.795 | 0.865 | 0.94 | 1.029 | 1.128 | 1.244 | 1.364 | 1.502
313.15 K | 0.649 | 0.694 | 0.75 | 0.819 | 0.883 | 0.961 | 1.044 | 1.132 | 1.235
